The values below are quoted from earlier work in paper PMC6399674 (The Journal of Organic Chemistry, 2019).

Where two headings read alike, the source gives them in different places.

This series deals with T1, lectin LecA (Pseudomonas aeruginosa, UniProt Q05097).
T1 sequence (Q05097 1-122): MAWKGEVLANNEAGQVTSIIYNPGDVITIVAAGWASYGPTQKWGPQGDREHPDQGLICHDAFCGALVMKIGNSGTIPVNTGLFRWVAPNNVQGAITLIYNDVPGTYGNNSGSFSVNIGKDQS
Particulars: ITC.

What is called Kd is the equilibrium constant for the complex coming apart. With `O=C[C@H](O)[C@@H](O)[C@@H](O)[C@H](O)CO` [D-dalactose, galactose], the “n (stoichiometry)” value is listed as 1.1, the ΔG entry is given as “–5.5 kcal/mol”, the ΔH entry is listed as “–7.9 kcal/mol” and the “–TΔS” value is recorded as 2.3 kcal/mol. Under “as stated in text”, the Kd is 70 to 90 µM.

On to `OC[C@H]1O[C@@H](Oc2ccccc2)[C@H](O)[C@@H](O)[C@H]1O` [Gal-β-OPh], for which the Kd is 8.8 µM, the “n (stoichiometry)” value is 0.9, the ΔG result is “–6.9 kcal/mol” and the ΔH entry is “–11.2 kcal/mol”. The “–TΔS” value is on record as 4.8 kcal/mol. Besides, the Kd (as stated in text) is roughly 9 µM.
